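48-hour exposure; five concentrations; linearly interpolated endpoints. At the GI50, growth is halved. TGI marks complete inhibition of growth.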 Where a SMILES comes first, the peptide text is derived from it.
Experiments:
Test in all cases: NCI-60 cell line screen, 48 h
CAKI-1 renal = test system: CAKI-1 renal
HCT-15 colon = test system: HCT-15 colon
HOP-62 NSCLC = test system: HOP-62 NSCLC
MOLT-4 leukemia = test system: MOLT-4 leukemia
OVCAR-3 ovarian = test system: OVCAR-3 ovarian
SF-268 CNS = test system: SF-268 CNS
SK-MEL-2 melanoma = test system: SK-MEL-2 melanoma
BT-549 breast = test system: BT-549 breast
MDA-MB-231 breast = test system: MDA-MB-231 breast
MCF7 breast = test system: MCF7 breast

Row | Structure (SMILES) | TGI (CAKI-1 renal) | TGI (HCT-15 colon) | TGI (HOP-62 NSCLC) | TGI (MOLT-4 leukemia) | TGI (OVCAR-3 ovarian) | TGI (SF-268 CNS) | TGI (SK-MEL-2 melanoma) | GI50 (BT-549 breast) | TGI (BT-549 breast) | GI50 (HCT-15 colon) | GI50 (HOP-62 NSCLC) | GI50 (MDA-MB-231 breast) | TGI (MDA-MB-231 breast) | GI50 (MOLT-4 leukemia) | GI50 (OVCAR-3 ovarian) | GI50 (SF-268 CNS) | GI50 (SK-MEL-2 melanoma) | GI50 (CAKI-1 renal) | TGI (MCF7 breast)
1 | O=C(O)c1ccc(O)c(N=Nc2cc(S(=O)(=O)O)c3ccccc3c2O)c1 | > 100 µM | > 10 µM | 35.6 µM | > 100 µM | > 100 µM | > 10 µM | > 10 µM |  |  |  |  |  |  |  |  |  |  |  | 
2 | Cc1c(C(=O)CC(=O)C(=O)Nc2ccc(Cl)c(Cl)c2)[n+](=O)c2ccccc2n1[O-] | > 100 µM | 48.2 µM | > 100 µM | 44.5 µM | 7.91 µM | 85.2 µM | 57 µM |  |  |  |  |  |  |  |  |  |  |  | 
3 | Nc1ncnc(NC2C=C(CO)C(O)C2O)c1[N+](=O)[O-] (stereo not given) | > 100 µM | > 100 µM | > 100 µM | > 100 µM | > 100 µM | > 100 µM | > 100 µM |  |  |  |  |  |  |  |  |  |  |  | 
4 | CC(C)NCC(O)COC(=O)c1cccs1 (stereo not given) | > 100 µM | > 100 µM | > 100 µM | > 100 µM | > 100 µM | > 100 µM | > 100 µM |  |  |  |  |  |  |  |  |  |  |  | 
5 | ClC1CCC2OOC1O2 (stereo not given) | > 100 µM | > 100 µM | > 100 µM | > 100 µM | > 100 µM | > 100 µM | > 100 µM |  |  |  |  |  |  |  |  |  |  |  | 
6 | C=C1C(=O)O[C@H]2[C@H]1CC/C(COC(=O)CCCCCCCCC(=O)OC/C1=C/CC[C@@]3(C)O[C@H]3[C@H]3OC(=O)C(=C)[C@@H]3CC1)=C\CC[C@@]1(C)O[C@@H]21 |  | 4.47 µM | 4.65 µM | 13.7 µM | 3.11 µM | 3.84 µM | 8.2 µM | 1.54 µM | 3.22 µM | 1.91 µM | 2.03 µM | 1.92 µM | 3.79 µM | 2.58 µM | 1.67 µM | 1.86 µM | 2.8 µM |  | 
7 | N/C(=N\N=C\c1cccs1)NO | > 100 µM | > 100 µM | > 100 µM |  | > 100 µM | > 100 µM | > 100 µM |  |  |  |  |  |  |  |  |  |  |  | 
8 | CCc1ccccc1NC(=O)CCc1n[nH]c(=S)o1 | > 100 µM | 36.8 µM | > 100 µM | > 100 µM | > 100 µM | > 100 µM |  |  |  |  |  |  |  |  |  |  |  |  | 
9 | COC(=O)C(C(=O)C(=O)Nc1ccccc1C(C)=O)c1nc2ccc(Cl)cc2[nH]c1=O (stereo not given) | > 100 µM | > 100 µM | > 100 µM | > 100 µM | > 100 µM | > 100 µM | > 100 µM |  |  |  |  |  |  |  |  |  |  |  | 
10 | CN(C)C(=O)/N=c1\ss/c(=N\C(=S)N(C)C)n1-c1ccccc1 | > 100 µM | > 100 µM | > 100 µM | > 82.1 µM | > 65.6 µM | > 100 µM | > 100 µM |  |  |  |  |  |  | 0.158 µM |  | 0.389 µM |  | 2.76 µM | 
11 | CC1(C)OC(C(N)=O)=C(C(N)=O)O1 | > 100 µM | > 100 µM | > 100 µM | > 100 µM | > 100 µM | > 100 µM | > 100 µM |  |  |  |  |  |  |  |  |  |  |  | 
12 | COc1cc(-c2cc(=O)c3ccccc3o2)ccc1N | 77.5 µM | > 100 µM | > 100 µM | > 100 µM | > 100 µM | > 100 µM | > 100 µM |  |  |  |  |  |  |  |  |  |  |  | 
13 | CCC(C)OC(=O)C1C2CCC(O2)C1C(=O)O (stereo not given) | > 100 µM | > 56 µM | > 100 µM | > 100 µM | > 100 µM | > 80.8 µM | > 100 µM |  |  |  |  |  |  |  |  |  |  |  | 
14 | O=C(/C=C\c1cccc2ccccc12)c1cccs1 | 22.7 µM | 13.8 µM | 41.5 µM | 35.8 µM | 23.7 µM | 26.1 µM |  |  |  |  |  |  |  |  |  |  |  |  | 
15 | COC(=O)C(C(=O)C(=O)NC1=C(Cl)C(=O)c2ccccc2C1=O)c1csc(-n2nc(-c3ccccc3)cc2-c2ccccc2)n1 (stereo not given) | > 100 µM | > 100 µM | > 100 µM | > 100 µM | > 100 µM | > 100 µM |  |  |  |  |  |  |  |  |  |  |  |  | 
16 | CC(C)CC(NC(=O)C(CC(C)C)NC(=O)C(Cc1cnc[nH]1)NC(=O)C(C)NC(=O)C(NC(=O)C(C)NC(=O)C(Cc1c[nH]c2ccccc12)NC(=O)C(CCC(=O)O)NC(=O)C(N)Cc1ccccc1)C(C)C)C(N)=O (stereo not given) (H-FEWAVAHLL-NH2; configuration not given here) | > 100 µM | > 100 µM | > 100 µM | > 100 µM | > 100 µM | > 12.5 µM | > 100 µM |  |  | > 100 µM | > 100 µM |  | > 12.5 µM | > 100 µM | > 100 µM |  | > 100 µM | > 100 µM | > 12.5 µM
17 | Cc1ccccc1NC(=O)C(=O)C(c1cnc2ccc([N+](=O)[O-])cc2n1)[N+](=O)[O-] (stereo not given) | > 100 µM | > 100 µM | > 100 µM | > 100 µM |  | > 100 µM | > 100 µM |  |  |  |  |  |  |  |  |  |  |  | 
18 | C#CCOCn1cnc2c(=S)nc[nH]c21 | > 100 µM | > 100 µM | > 100 µM |  | > 100 µM | > 100 µM | > 100 µM |  |  |  |  |  |  |  |  |  |  |  | 

Reference: PubChem BioAssay (NCI)
